According to patent US20260365646A1, “AKT1 MODULATORS” (Alterome Therapeutics, Inc., priority 2022, published 2026):

Target: T1, full length AKT E17K (Homo sapiens, UniProt P31749, E17K)
T1 construct: host or cells: HEK-293 (ATCC CRL-1573)
Assay: NanoBRET Target Engagement (TE) Intracellular Kinase Assay
Type: cell-based
Details: not given
Source text: The NanoBRET™ Target Engagement (TE) Intracellular Kinase Assays are based on the NanoBRET™ System (Promega Corporation), an energy transfer technique designed to measure molecular proximity in living cells. The NanoBRET™ TE Assays measure the apparent affinity of test compounds by competitive displacement of the NanoBRET™ tracer compound, which is a cell permeable molecule engineered to be reversibly bound to a NanoLuc® luciferase-kinase fusion expressed in cells. For compound screening, when a test compound binds to the selected kinase, the BRET signal is attenuated. […] All cells were evaluated for viability prior to transfection and optimization of the transfection was done prior to experimentation. […] Following transfection, cells were washed and resuspended in Opti-MEM. NanoBRET assays were performed in white, 384-well plates (Corning) at a density of 2×10^5 cells/well. All example compounds were prepared as concentrated stock solutions in DMSO (Sigma-Aldrich). Compounds are dissolved in DMSO to make 10 mM stock solution. […] A Labcyte ECHO 550 compound dispenser was used to facilitate compound transfer directly to cells. Cells were equilibrated for 2 hr with energy transfer probes and example compound prior to BRET measurements. […] For target engagement analysis, the energy transfer probes were added to the cells at concentrations optimized for the target in question (AKT E17K). Following compound incubation, NanoBRET NanoGlo Substrate (Promega Cat #Ni57D) and Extracellular Nanoluc Inhibitor (Promega Cat #N235C) was added according to the manufacturer's recommended protocol, and luminescence was measured on Envision Reader (Perkin Elmer) Multimode Luminometer equipped with 450 nm BPfilter (donor) and 600 nm LPfilter (acceptor), using 0.5 s integration time. Milli-BRET units (mBU) are calculated by multiplying the raw BRET values by 1000. Apparent tracer affinity values (EC50) were determined using the sigmoidal dose-response (variable slope). Competitive displacement data were then plotted and data were fit to determine the EC50 value for each example compound.

T1 sequence (P31749 whole entry E17K): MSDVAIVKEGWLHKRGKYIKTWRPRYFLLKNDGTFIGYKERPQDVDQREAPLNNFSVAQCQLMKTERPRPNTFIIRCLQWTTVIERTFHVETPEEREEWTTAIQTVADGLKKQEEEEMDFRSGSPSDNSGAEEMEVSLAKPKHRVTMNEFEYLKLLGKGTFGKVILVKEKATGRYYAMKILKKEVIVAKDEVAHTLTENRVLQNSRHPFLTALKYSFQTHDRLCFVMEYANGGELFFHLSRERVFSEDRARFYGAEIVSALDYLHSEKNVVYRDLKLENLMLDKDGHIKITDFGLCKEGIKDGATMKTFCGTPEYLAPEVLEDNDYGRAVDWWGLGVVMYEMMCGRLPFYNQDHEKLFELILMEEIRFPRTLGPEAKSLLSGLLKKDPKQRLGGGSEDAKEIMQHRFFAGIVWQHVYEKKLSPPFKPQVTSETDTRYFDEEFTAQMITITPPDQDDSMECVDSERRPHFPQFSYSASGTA

Row | EC50 [nM] | SMILES
1 | 15 to 60 | CCSc1c(N(CC)C2CCN(Cc3ccc(-n4c(-c5cccnc5N)nc5ccc(-c6ccccc6)nc54)cc3)CC2)c(=O)c1=O [Example 93, 3-((1-(4-(2-(2-aminopyridin-3-yl)-5-phenyl-3H-imidazo[4,5-b]pyridin-3-yl)benzyl)piperidin-4-yl)(ethyl)amino)-4-(ethylthio)cyclobut-3-ene-1,2-dione]
2 | 15 to 60 | COc1c(NC2CCC3(CC2)CCN(Cc2ccc(-n4c(-c5cccnc5N)nc5ccc(-c6ccccc6)nc54)cc2)C3)c(=O)c1=O (centres unmarked) [Example 52, 3-((2-(4-(2-(2-Aminopyridin-3-yl)-5-phenyl-3H-imidazo[4,5-b]pyridin-3-yl)benzyl)-2-azaspiro[4.5]decan-8-yl)amino)-4-methoxycyclobut-3-ene-1,2-dione]
3 | > 600 | Nc1ncccc1-c1nc2ccc(-c3ccccc3)nc2n1-c1ccc(CN2CCC(Nc3c(O)c(=O)c3=O)CC2)cc1 [Example 18, 3-((1-(4-(2-(2-Aminopyridin-3-yl)-5-phenyl-3H-imidazo[4,5-b]pyridin-3-yl)benzyl)piperidin-4-yl)amino)-4-hydroxycyclobut-3-ene-1,2-dione]
4 | 15 to 60 | CCSc1c(N(C2CC2)C2CCN(Cc3ccc(-n4c(-c5cccnc5N)nc5ccc(-c6ccccc6)nc54)cc3)CC2)c(=O)c1=O [Example 96, 3-((1-(4-(2-(2-aminopyridin-3-yl)-5-phenyl-3H-imidazo[4,5-b]pyridin-3-yl)benzyl)piperidin-4-yl)(cyclopropyl)amino)-4-(ethylthio)cyclobut-3-ene-1,2-dione]
5 | 15 to 60 | COc1c(N2CCC3(CCN(Cc4ccc(-n5c(-c6cccnc6N)nc6ccc(-c7ccccc7)nc65)cc4)CC3)C2)c(=O)c1=O [Example 54, 3-(8-(4-(2-(2-Aminopyridin-3-yl)-5-phenyl-3H-imidazo[4,5-b]pyridin-3-yl)benzyl)-2,8-diazaspiro[4.5]decan-2-yl)-4-methoxycyclobut-3-ene-1,2-dione]
6 | 60 to 600 | COc1c(N2CCN(Cc3ccc(-n4c(-c5cccnc5N)nc5cc(-c6ccccc6)cnc54)cc3)CC2)c(=O)c1=O [Example 9, 3-(4-(4-(2-(2-Aminopyridin-3-yl)-6-phenyl-3H-imidazo[4,5-b]pyridin-3-yl)benzyl)piperazin-1-yl)-4-methoxycyclobut-3-ene-1,2-dione]
7 | 15 to 60 | CCOc1c(NC2CCN(Cc3ccc(-n4c(-c5cccnc5N)nc5ccc(-c6ccccc6)nc54)cc3)CC2)c(=O)c1=O [Example 12, 3-((1-(4-(2-(2-Aminopyridin-3-yl)-5-phenyl-3H-imidazo[4,5-b]pyridin-3-yl)benzyl)piperidin-4-yl)amino)-4-ethoxycyclobut-3-ene-1,2-dione]
8 | > 600 | COc1c(N2CC3(CN(Cc4ccc(-n5c(-c6cccnc6N)nc6ccc(-c7ccccc7)nc65)cc4)C3)C2)c(=O)c1=O [Example 41, 3-(6-(4-(2-(2-Aminopyridin-3-yl)-5-phenyl-3H-imidazo[4,5-b]pyridin-3-yl)benzyl)-2,6-diazaspiro[3.3]heptan-2-yl)-4-methoxycyclobut-3-ene-1,2-dione]
9 | > 600 | Nc1ncccc1-c1nc2ccc(-c3ccccc3)nc2n1-c1ccc(CN2CCN(c3c(OC4CCCC4)c(=O)c3=O)CC2)cc1 [Example 26, 3-(4-(4-(2-(2-aminopyridin-3-yl)-5-phenyl-3H-imidazo[4,5-b]pyridin-3-yl)benzyl)piperazin-1-yl)-4-(cyclopentyloxy)cyclobut-3-ene-1,2-dione]
10 | > 600 | COc1c(NCc2ccc(-n3c(-c4cccnc4N)nc4cccnc43)cc2)c(=O)c1=O [Example 2, 3-((4-(2-(2-Aminopyridin-3-yl)-3H-imidazo[4,5-b]pyridin-3-yl)benzyl)amino)-4-methoxycyclobut-3-ene-1,2-dione]
11 | > 600 | Nc1ncccc1-c1nc2ccc(-c3ccccc3)nc2n1-c1ccc(CN2CCN(c3c(O)c(=O)c3=O)CC2)cc1 [Example 22, 3-(4-(4-(2-(2-Aminopyridin-3-yl)-5-phenyl-3H-imidazo[4,5-b]pyridin-3-yl)benzyl)piperazin-1-yl)-4-hydroxycyclobut-3-ene-1,2-dione]
12 | 60 to 600 | COc1c(N2[C@H](C)CN(Cc3ccc(-n4c(-c5cccnc5N)nc5ccc(-c6ccccc6)nc54)cc3)C[C@@H]2C)c(=O)c1=O [Example 68, 3-((2S,6R)-4-(4-(2-(2-aminopyridin-3-yl)-5-phenyl-3H-imidazo[4,5-b]pyridin-3-yl)benzyl)-2,6-dimethylpiperazin-1-yl)-4-methoxycyclobut-3-ene-1,2-dione]
13 | 60 to 600 | Nc1ncccc1-c1nc2ccc(-c3ccccc3)nc2n1-c1ccc(CN2CCC(Nc3c(OC4CCCC4)c(=S)c3=S)CC2)cc1 [Example 16, 3-((1-(4-(2-(2-Aminopyridin-3-yl)-5-phenyl-3H-imidazo[4,5-b]pyridin-3-yl)benzyl)piperidin-4-yl)amino)-4-(cyclopentyloxy)cyclobut-3-ene-1,2-dithione]
14 | > 600 | CC(C)Oc1c(N2CCN(Cc3ccc(-n4c(-c5cccnc5N)nc5ccc(-c6ccccc6)nc54)cc3)CC2)c(=O)c1=O [Example 25, 3-(4-(4-(2-(2-Aminopyridin-3-yl)-5-phenyl-3H-imidazo[4,5-b]pyridin-3-yl)benzyl)piperazin-1-yl)-4-isopropoxycyclobut-3-ene-1,2-dione]

Same assay, conditions: read-out: NanoBRET AKT1E17K EC50; HEK-293 cells transfected with NanoLuc-AKT E17K; competitive displacement of NanoBRET tracer; 2 hr equilibration; 10-point 3-fold dilution

Row | EC50 [nM] | SMILES
15 | < 15 | COc1c(NC2CCN(Cc3ccc(-n4c(-c5cccnc5N)nc5ccc(-c6ccccc6)nc54)cc3)CC2)c(=O)c1=O [Example 17, 3-((1-(4-(2-(2-Aminopyridin-3-yl)-5-phenyl-3H-imidazo[4,5-b]pyridin-3-yl)benzyl)piperidin-4-yl)amino)-4-methoxycyclobut-3-ene-1,2-dione]
16 | < 15 | COc1c(N(C2CC2)C2CCN(Cc3ccc(-n4c(-c5cccnc5N)nc5ccc(-c6ccccc6)nc54)cc3)CC2)c(=O)c1=O [Example 94, 3-((1-(4-(2-(2-aminopyridin-3-yl)-5-phenyl-3H-imidazo[4,5-b]pyridin-3-yl)benzyl)piperidin-4-yl)(cyclopropyl)amino)-4-methoxycyclobut-3-ene-1,2-dione]
17 | < 15 | COc1c(NN2CCN(Cc3ccc(-n4c(-c5cccnc5N)nc5ccc(-c6ccccc6)nc54)cc3)CC2)c(=O)c1=O [Example 83, 3-((4-(4-(2-(2-aminopyridin-3-yl)-5-phenyl-3H-imidazo[4,5-b]pyridin-3-yl)benzyl)piperazin-1-yl)amino)-4-methoxycyclobut-3-ene-1,2-dione]
18 | < 15 | CCSc1c(N(C)C2CCN(Cc3ccc(-n4c(-c5cccnc5N)nc5ccc(-c6ccccc6)nc54)cc3)CC2)c(=O)c1=O [Example 49, 3-((1-(4-(2-(2-Aminopyridin-3-yl)-5-phenyl-3H-imidazo[4,5-b]pyridin-3-yl)benzyl)piperidin-4-yl)(methyl)amino)-4-(ethylthio)cyclobut-3-ene-1,2-dione]
19 | < 15 | COc1c(N2CC3(CCN(Cc4ccc(-n5c(-c6cccnc6N)nc6ccc(-c7ccccc7)nc65)cc4)CC3)C2)c(=O)c1=O [Example 53, 3-(7-(4-(2-(2-Aminopyridin-3-yl)-5-phenyl-3H-imidazo[4,5-b]pyridin-3-yl)benzyl)-2,7-diazaspiro[3.5]nonan-2-yl)-4-methoxycyclobut-3-ene-1,2-dione]
20 | < 15 | CCSc1c(N2C[C@H]3CN(Cc4ccc(-n5c(-c6cccnc6N)nc6ccc(-c7ccccc7)nc65)cc4)C[C@H]3C2)c(=O)c1=O [Example 88, 3-((3aR,6aS)-5-(4-(2-(2-aminopyridin-3-yl)-5-phenyl-3H-imidazo[4,5-b]pyridin-3-yl)benzyl)hexahydropyrrolo[3,4-c]pyrrol-2(1H)-yl)-4-(ethylthio)cyclobut-3-ene-1,2-dione]
21 | < 15 | COc1c(N2CCCN(Cc3ccc(-n4c(-c5cccnc5N)nc5ccc(-c6ccccc6)nc54)cc3)CC2)c(=O)c1=O [Example 38, 3-(4-(4-(2-(2-Aminopyridin-3-yl)-5-phenyl-3H-imidazo[4,5-b]pyridin-3-yl)benzyl)-1,4-diazepan-1-yl)-4-methoxycyclobut-3-ene-1,2-dione]
22 | < 15 | COc1c(NC2CC3(CCN(Cc4ccc(-n5c(-c6cccnc6N)nc6ccc(-c7ccccc7)nc65)cc4)CC3)C2)c(=O)c1=O [Example 35, 3-((7-(4-(2-(2-Aminopyridin-3-yl)-5-phenyl-3H-imidazo[4,5-b]pyridin-3-yl)benzyl)-7-azaspiro[3.5]nonan-2-yl)amino)-4-methoxycyclobut-3-ene-1,2-dione]
23 | < 15 | COc1c(N(C)C2CCN(C(C)c3ccc(-n4c(-c5cccnc5N)nc5ccc(-c6ccccc6)nc54)cc3)CC2)c(=O)c1=O (centres unmarked) [Example 90, 3-((1-(1-(4-(2-(2-aminopyridin-3-yl)-5-phenyl-3H-imidazo[4,5-b]pyridin-3-yl)phenyl)ethyl)piperidin-4-yl)(methyl)amino)-4-methoxycyclobut-3-ene-1,2-dione]
